Assay results reported in US8183364B2, “Substituted porphyrins” (Duke University, priority 2004, dated 2012).

Key:
[1] = Oxidative degradation in the presence of ascorbic acid under aerobic conditions; format: physicochemical; settings: pH 7.8 (0.05 M tris buffer)
Outline: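 Mn porphyrins exposed to ascorbic acid under aerobic conditions; percentage of porphyrin degraded within 2 hours recorded.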

[2] = Catalysis of O2.^− dismutation by pulse radiolysis; format: biochemical; settings: for log kcat for O2^− dismutation: pulse radiolysis, pH 7.8, (22 ± 1) °C, kcat ±30%
Protocol: Catalysis of O2.^− dismutation. The catalytic rate constants for the O2.^− dismutation were determined by pulse radiolysis in 0.05 M phosphate buffer (pH 7.8) at (22±1)° C. as previously described (Batinic-Haberle et al, Inorg. Chem. 40:726 (2001)). In the present study 10 mM formate was used as a scavenger for H. atoms and .OH radicals, which leads first to production of CO2.^− radicals and then to O2.^− radicals. This system is known to lead to conversion of all primary radicals of water radiolysis into O2.^−.
Catalysis of O2.^− dismutation. Pulse radiolysis was used to assess the SOD-like activities of the Mn porphyrins studied. The initial concentration of O2.^− produced by the pulse was about 27 μM, and the concentration of the Mn porphyrin was between 0.5 and 5 μM. The dismutation of O2.^− was followed at 280 nm. The catalytic rate constant was determined from the linear dependence of kobs upon the concentration of the catalyst (Batinic-Haberle et al, Inorg. Chem. 40:726 (2001)). All the new compounds have high O2.^− dismuting ability. The magnitude of the catalysis is due to the interplay of the electron-withdrawing effects of quaternized ortho pyridyl or di-ortho imidazolyl groups, favorable electrostatics, and the solvation of the metal site.

[3] = tested on: SOD-deficient JI132 E. coli; experiment: Aerobic growth of SOD-deficient E. coli; format: cell-based; settings: for aerobic growth of SOD-deficient E. coli: 5AA minimal medium
Outline: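 Strains were AB1157 and its sodA sodB mutant JI132, precultured overnight in M9CA at 37 °C, then diluted to 3×10^7 cells/mL in M9CA or, after washing, in 5AA minimal medium. Mn porphyrins at 0.1 to 30 μM were present during aerobic shaking at 37 °C. Growth rate was followed by turbidity at 700 nm.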

[4] = Kinetic salt effect on O2.^− dismutation by cytochrome c assay; format: biochemical; settings: 0.05 M phosphate buffer, pH 7.8, 0-0.4 M NaCl
Protocol: Kinetic salt effect. The dependence of the catalytic rate constant for the O2.^− dismutation upon ionic strength was determined by cytochrome c assay (McCord and Fridovich, J. Biol. Chem. 244:6049 (1969)) in 0.05 M phosphate buffer, pH 7.8 with NaCl ranging from 0 to 0.4 M. In doing this, the effect of ionic strength on the rate of the O2.^−/cytochrome c reaction was corrected for.
Kinetic salt effect. The effect of the ionic strength (μ) on the catalytic rate constant was assessed using eq which is based on Debye-Huckel relation (Hambright et al, J. Porphyrins Phthalocyanines 7:139-146 (2003)) for the effect of the ionic strength of the solution on the activity coefficient of an ion. log k=log kref+2AzAzBμ^1/2/(1+μ^1/2) The k is the rate constant at any given ionic strength, while kref is the rate constant at μ=0. The A is a collection of physical constants with a value of 0.509 and zA and zB are the charges of the reacting species. The equation predicts a linear plot of log k vs μ^1/2/(1+μ^1/2). Eq assumes a coefficient of 1.0 (βai) for μ^1/2 in the denominator, i.e., the distance of the closest approach, ai to be 3 A and β is a physical constant, […]. It is doubtful whether great significance can be attributed to the ai, thus to the product zAzB (Hambright et al, J. Porphyrins Phthalocyanines 7:139-146 (2003)), especially so in the light of the bulkiness, high charge and solvation shell of the metalloporphyrins. Accounting for the mono- and diprotonated phosphates as the major species at pH 7.8 (pKa=7.2), and the concentration of the NaCl, the ionic strength was calculated using equation μ=½ Σ mizi^2 where mi is the molality and zi the charge of the given ion.
The slopes of the plots are −6.48 (MnTE-2-PyP^5+), −7.02 (MnTMOE-2-PyP^5+), −7.38 (MnTDMOE-2-ImP^5+), and −4.15 (MnTnBu-2-PyP^5+). As expected (Hambright et al, J. Porphyrins Phthalocyanines 7:139-146 (2003)), when the reactants are ions of opposite charges, the higher the ionic strength of the solution the lower the rate constants, i.e. the slopes are negative. The slopes of the plots indicate clearly the impact of the local dielectric constant on the kcat. The kcat of the most lipophilic compound, MnTnBu-2-PyP^5+ is 40% less sensitive to the changes in ionic strength of the solution than is the kcat of its methoxyethyl analogue, MnTMOE-2-PyP^5+.

| Structure (SMILES) | degradation within 2 hours [1] [%] | log kcat for O2^− dismutation [2] | aerobic growth of SOD-deficient E. coli ([3]; 3 μM) | aerobic growth of SOD-deficient E. coli ([3]; 25 μM) | protection of SOD-deficient E. coli ([3]; M9CA medium, 3 μM) | protection of E. coli from oxidative stress ([3]; ≦3 μM levels (FIG. 10: 5AA minimal medium)) | slope of log kcat vs μ^1/2/(1+μ^1/2) [4] | SOD-like activity relative to MnTE-2-PyP^5+ ([2]; vs MnTE-2-PyP^5+) | kcat higher than MnTnBu-2-PyP^5+ ([2]; vs MnTnBu-2-PyP^5+) [fold] |
| --- | --- | --- | --- | --- | --- | --- | --- | --- | --- |
| COCCn1cc[n+](CCOC)c1-c1c2nc(c(-c3n(CCOC)cc[n+]3CCOC)c3ccc([n-]3)c(-c3n(CCOC)cc[n+]3CCOC)c3nc(c(-c4n(CCOC)cc[n+]4CCOC)c4ccc1[n-]4)C=C3)C=C2.[Mn+3] [MnTDMOE-2-ImP^5+, Mn(III) tetrakis 5,10,15,20-tetrakis[N,N′-di(2-methoxyethyl)imidazolium-2-yl]porphyrin] | 2 | 7.59 | the most effective methoxyethyl porphyrin | not far behind | the most effective (next to n-butyl and n-hexyl) | the most protective | −7.38 | – | – |
| COCC[n+]1ccccc1-c1c2nc(c(-c3cccc[n+]3CCOC)c3ccc([n-]3)c(-c3cccc[n+]3CCOC)c3nc(c(-c4cccc[n+]4CCOC)c4ccc1[n-]4)C=C3)C=C2.[Mn+3] [MnTMOE-2-PyP^5+, Mn(III) tetrakis 5,10,15,20-tetrakis[N-(2-methoxyethyl)pyridinium-2-yl]porphyrin] | 24 | 8.04 | – | not far behind | – | – | −7.02 | two-fold higher | 6 |
